Assay results: patent publication US20250376497A1, “ARTIFICIAL PROTEIN AND USES THEREOF” (priority 2022, published 2025)
Values joined by “and” are separate entries in the source; they are usually repeats but may differ in a detail not shown here. Equal values may be shown once. “Also recorded” adds a separate entry of the source. Bridge positions count the residues as written; N and C are the ends. Ends that are not written are not given here.

Assays:
OR2 [1] = target: T1, OR2 (Homo sapiens, UniProt O43614); set-up: host or cells: HEK-293T; conditions: Lang et al., 2004; cited from earlier work
T1 sequence (O43614 1-444): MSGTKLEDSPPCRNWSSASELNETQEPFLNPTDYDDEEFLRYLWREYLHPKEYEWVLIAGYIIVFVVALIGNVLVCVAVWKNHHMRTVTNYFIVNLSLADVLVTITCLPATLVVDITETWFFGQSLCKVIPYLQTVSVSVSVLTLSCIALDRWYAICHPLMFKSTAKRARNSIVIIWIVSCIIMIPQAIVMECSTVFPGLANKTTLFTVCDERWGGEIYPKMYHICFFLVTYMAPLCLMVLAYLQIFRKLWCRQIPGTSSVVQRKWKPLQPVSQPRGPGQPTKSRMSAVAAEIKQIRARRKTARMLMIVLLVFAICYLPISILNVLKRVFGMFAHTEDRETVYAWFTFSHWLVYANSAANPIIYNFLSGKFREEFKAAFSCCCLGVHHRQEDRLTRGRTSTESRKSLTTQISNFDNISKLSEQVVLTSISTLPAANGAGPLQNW

OR1 [2] = target: T2, OR1 (Homo sapiens, UniProt O43613); set-up: host or cells: HEK-293T; conditions: Lang et al., 2004; cited from earlier work
T2 sequence (O43613 1-425): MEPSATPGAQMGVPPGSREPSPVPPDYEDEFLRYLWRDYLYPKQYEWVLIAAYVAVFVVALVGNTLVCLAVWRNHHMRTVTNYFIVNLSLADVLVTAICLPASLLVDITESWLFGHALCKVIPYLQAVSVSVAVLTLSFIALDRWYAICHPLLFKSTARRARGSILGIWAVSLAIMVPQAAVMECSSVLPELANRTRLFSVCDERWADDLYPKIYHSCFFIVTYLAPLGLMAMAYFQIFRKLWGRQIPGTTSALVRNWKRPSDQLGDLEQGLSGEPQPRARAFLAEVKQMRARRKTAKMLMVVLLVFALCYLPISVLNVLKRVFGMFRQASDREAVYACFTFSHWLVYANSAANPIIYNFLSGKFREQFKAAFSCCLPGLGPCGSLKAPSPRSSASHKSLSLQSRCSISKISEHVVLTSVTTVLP

OX-KO mice [3] = assay: Wakefulness and sleep (EEG/EMG) after subcutaneous injection in OX-KO mice; format: in vivo, mouse; conditions: SC single injection at ZT0, 160 μM in 1 mL saline, vs vehicle; for time spent in REM sleep: light and dark period
Protocol: Wakefulness, non-REM sleep (NREM) and REM sleep are expressed as a percentage of the recording time. V: vehicle (saline). OX-D: OX-DRAGON. TAT: TAT peptide. ZT: Zeitgeber Time (i.e., time since lights were switched on). Each peptide was injected subcutaneously at the concentration of […] in 1 mL of vehicle at ZT0. *: P<0.05, Wilcoxon test with exact significance (Monte Carlo method) vs. vehicle with correction for false-discovery rate.
(§1) A biocompatible acrylic resin protection for was applied to the animal's head to protect the electrode and cannula connectors. After 1-2 weeks of post-operative recovery, the animals were connected via rotating electrical and fluid connectors respectively to thin electrical cables and to a catheter, itself connected to a precision pump for ICV infusion. The rotating connectors, cables and catheter were supported by a balanced arm to allow the animals full freedom of movement during the recordings, which were made with light: dark cycle of 12:12 hours. Wakefulness, non-REM sleep, and REM sleep were assessed based on EEG and EMG tracings with a technique previously published in detail (Bastianini et al., 2011).
Experiments were performed as in step 3 above, except for the absence of the ICV cannula implant.

OX-KO mice [4] = assay: Cataplexy-like episodes after subcutaneous injection in OX-KO mice; format: in vivo, mouse; conditions: SC single injection at ZT0, 160 μM in 1 mL saline; for total duration of cataplexy-like episodes during the dark period: vs vehicle
Excerpt: D-CLS: total duration of cataplectic-like episodes during the dark period. V: vehicle (saline). OX-D: OX-DRAGON. TAT: TAT peptide. […] […] The dots indicate values in individual mice.
Such episodes, identified as direct transitions from wakefulness to REM sleep (Scammell et al., 2009), during the dark period are 100% specific for cataplexy in mouse models of NT1 (Fujiki et al., 2009). Correspondence between such events on polysomnographic tracings and abrupt behavioural transitions to a state of immobility was confirmed based on synchronized video tracings in a subset of mice (n=4) during treatment with vehicle and with OX-DRAGON.

OX-KO mice [5] = assay: Wakefulness and sleep (EEG/EMG) after intracerebroventricular infusion in OX-KO mice; format: in vivo, mouse; conditions: ICV 160 μM at 5 μL/h, ZT0-6, vs vehicle (artificial cerebrospinal fluid)
Protocol: Wakefulness, non-REM sleep (NREM) and REM sleep are expressed as a percentage of the recording time. V: vehicle (artificial cerebrospinal fluid). OX-D: OX-DRAGON. TAT: TAT peptide. ZT: Zeitgeber time (i.e., time since lights were switched on). Black bars: intracerebroventricular infusion (5 μL/h from ZT0 to ZT6, with vehicle or peptides at 160 μM). * and †: P<0.05, Wilcoxon test with exact significance (Monte Carlo method) vs. vehicle (with correction for false-discovery rate) or vs. OX-DRAGON, respectively.
as §1

[6] = Solubility of the peptide; format: physicochemical
Protocol: Two batches of OX-DRAGON were synthesized by an external commercial entity (Genscript, (www.genscript.com), with purity ≥98.0% and net peptide content ≥68.0% (FIG. 2). The peptide is highly soluble […] in water, DPBS and DMSO.

OR2 [7] = target: T1, OR2; assay: cell-based
WT Neuro-2a cells = assay: Immunofluorescence (anti-OXA 16-33 amide) internalization in WT Neuro-2a cells; format: cell-based, mouse; conditions: 74 μM, 1 hour, confocal microscopy
Excerpt: The panels show immunofluorescence imaging (rabbit anti-OXA 16-33 amide primary antibody, 1:200, Phoenix peptides #H-003-36) in Neuro-2a cells without expression of OR1 and OR2. […] The presence of diffuse TRITC fluorescence at the cytoplasmic level was confirmed in confocal microscopy (panel A). […] Calibration bars: 50 μm.
Because crossing the BBB requires the ability to cross endothelial cell membranes, these experiments support the ability of OX-DRAGON to cross the BBB and reach brain tissue after systemic administration.

[8] = system: control Neuro-2a cells that do not express such receptors (wild-type, WT); assay: Intracellular Ca2+ response in control wild-type Neuro-2a cells without OR1/OR2; format: cell-based, mouse; conditions: Neuro-2a cells without OR1 and OR2
Protocol: (§2) Selective expression of the OR1- or OR2-coding genes in the corresponding cell lines and the absence of expression of OR1 and OR2 in WT cells were confirmed by real-time PCR from RNA extracted from the individual DNAse-treated and back-transcribed cells (FIG. 3A). Responses in terms of intracellular [Ca^2+] were assessed in triplicate using Fluo-4 Direct Calcium Assay (Invitrogen) and a Tekan Spark microplate reader, normalizing the results obtained to the maximal responses.

OR2 [9] = target: T1, OR2; assay: Intracellular Ca2+ response (Fluo-4 Direct Calcium Assay) in Neuro-2a cells expressing human OR2; format: cell-based; set-up: expressed in transfected cells; conditions: OX-DRAGON 8.5 μM vs OXA 14.8 μM; triplicate; normalized to maximal responses
Excerpt: (§3) Panel A: L, ladder DNA. Panel B: Data are reported as mean values and standard errors of the mean on triplicate measurements. The dots indicate the individual measures. […] The arrows indicate the time of the microinjection.
as §2

OR1 [10] = target: T2, OR1; assay: Concentration-response reporter assay kit (Cayman n. 600240/600250) on HEK-293T cells, OR1; format: cell-based; set-up: host or cells: HEK-293T
OR1 [11] = target: T2, OR1; assay: Intracellular Ca2+ response (Fluo-4 Direct Calcium Assay) in Neuro-2a cells expressing human OR1; format: cell-based; set-up: expressed in transfected cells; conditions: OX-DRAGON 8.5 μM vs OXA 14.8 μM; triplicate; normalized to maximal responses
Excerpt: as §3, §2

Row | Substance | time spent awake (OX-KO mice [3]) | time spent in non-REM sleep (OX-KO mice [3]) | time spent in REM sleep (OX-KO mice [3]) | total duration of cataplexy-like episodes during the dark period (OX-KO mice [4]) | REM sleep time (OX-KO mice [5]) | non-REM sleep time (OX-KO mice [5]) | wakefulness time (OX-KO mice [5]) | other results
1 | PDCCRQKTCSCRLYELLHGAGNHAAGILTL [4-33 truncated sequence of OXA] |  |  |  |  |  |  |  | EC50 on OR2 relative to the native OXA protein (OR2 [1]): approximately 1/7; EC50 on OR1 relative to the native OXA protein (OR1 [2]): approximately 1/7
2 | YGRKKRRQRRR [TAT, cell penetrating TAT peptide of type-1 human immunodeficiency virus (HIV), reference compound] | did not result in significant effects | did not result in significant effects | did not result in significant effects | not replicated | significant reduction in REM sleep time during the dark period | did not evoke significant effects | did not evoke significant effects | 
3 | YGRKKRRQRRRPDCCRQKTCSCRLYELLHGAGNHAAGILTL-NH2 (disulfide 14-20, 15-22) [OX-DRAGON] | without exerting significant effects | without exerting significant effects | significantly decrease | significantly decrease | marked reduction in REM sleep time | decreased non-REM sleep time | increased wakefulness time | solubility ([6]; in DMSO): 10000 µg/mL; solubility ([6]; in DPBS): 10000 µg/mL; solubility ([6]; in water): 10000 µg/mL; EC50 (OR2 [7]): 10.5 nM; internalization into cells (intracellular/cytoplasmic fluorescence signal) (WT Neuro-2a cells): cytoplasmic signal of diffused fluorescence; also recorded: presence of TRITC fluorescence signal at the intracellular level; intracellular [Ca2+] response of WT cells [8]: absence of significant effects; intracellular [Ca2+] response of OR2-expressing cells (OR2 [9]): close to the maximal ones evoked by OXA; EC50 (OR1 [10]; HEK-293T cells, reporter assay, Hill equation fit): 67.7 nM; OR1/OR2 EC50 ratio (OR1 [10]; receptor selectivity, EC50 OR1 / EC50 OR2): 6.47 and 6.5; intracellular [Ca2+] response of OR1-expressing cells (OR1 [11]): close to the maximal ones evoked by OXA; duration of individual cataplexy-like episodes (OX-KO mice [4]): no significant changes; number of cataplexy-like episodes (OX-KO mice [4]; P=0.034 one-tailed Wilcoxon): reduction in the number of cataplexy-like episodes
